Results published in PubChem BioAssay (NCI).
Several values for one entry are separate records, joined by “and”; a condition that tells them apart may be missing. Equal entries are not always repeated.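 Grown in 96-well plates, cells were treated for 48 hours with each compound at five concentrations. Insufficient inhibition: endpoint recorded as highest concentration tested. The concentration for 50% growth inhibition is given as GI50. TGI: concentration producing complete growth inhibition.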

Key:
Experiment in all cases: NCI anticancer screen, dose series, 48 h
[1] = tested on: HCT-15 colon
[2] = tested on: HOP-92 NSCLC
[3] = tested on: LXFL 529 NSCLC
[4] = tested on: KM20L2 colon
[5] = tested on: DMS 114 small cell lung
[6] = tested on: DMS 273 small cell lung
[7] = tested on: U251 CNS
[8] = tested on: SNB-75 CNS
[9] = tested on: SW-620 colon
[10] = tested on: OVCAR-3 ovarian

| Compound | TGI [1] | TGI [2] | TGI [3] [µM] | TGI [4] [µM] | TGI [5] | TGI [6] [µM] | TGI [7] | TGI [8] | TGI [9] | TGI [10] | GI50 [1] | GI50 [2] | GI50 [3] [µM] | GI50 [4] [µM] | GI50 [6] [µM] | GI50 [7] [µM] | GI50 [8] | GI50 [9] | GI50 [10] | GI50 [5] [µM] |
| --- | --- | --- | --- | --- | --- | --- | --- | --- | --- | --- | --- | --- | --- | --- | --- | --- | --- | --- | --- | --- |
| O=c1nc2occc2cn1C1CC(O)C(CO)O1 (stereo not given) | > 100 µM | > 100 µM | > 100 | > 100 | > 100 µM | > 100 | > 100 µM | > 100 µM | > 100 µM | > 100 µM |  |  |  |  |  |  |  |  |  |  |
| O=C1CCCC/C(=C/c2ccccc2)N1 | > 100 µM | > 100 µM | > 100 | > 100 | > 100 µM | > 100 | > 100 µM | > 100 µM | > 100 µM | > 100 µM |  |  |  |  |  |  |  |  |  |  |
| CC(=O)O.CC(=O)O.CC(=O)O.CC(=O)O.CC(=O)O.CC(=O)O.O.[Ti].[Ti] | > 100 µM | > 100 µM | > 100 | > 100 |  | > 100 | > 100 µM | > 100 µM | > 100 µM | > 100 µM | > 100 µM | > 100 µM | > 100 | > 100 | > 100 | > 100 | 56 µM | > 100 µM | > 100 µM |  |
| Cc1ccccc1N1C(=O)/C(=C/c2ccc(N(CCC#N)CCC#N)cc2)N=C1c1cc([N+](=O)[O-])ccc1Cl | > 100 µM |  | > 100 | > 100 | > 100 µM | > 100 | > 100 µM | > 100 µM | > 100 µM | > 100 µM |  |  |  |  |  |  |  |  |  |  |
| Cc1ccc(S(=O)(=O)NCC2CCCCC2=O)cc1 (stereo not given) | > 100 µM | 97.2 µM | > 100 | > 100 | > 100 µM | > 100 | > 100 µM | 93.1 µM | > 100 µM | > 100 µM |  |  |  |  |  |  |  |  |  |  |
| O=C(Nc1nc2ncn(CCI)c2c(=O)[nH]1)c1ccccc1 | > 100 µM | 81 µM | > 100 | > 100 |  | > 100 | > 96.5 µM | 46.4 µM | > 100 µM | > 100 µM |  |  |  |  |  |  |  |  |  |  |
| S=C(N/N=C/c1ccco1)NC12CC3CC(CC(C3)C1)C2 | > 100 µM | > 100 µM | > 100 | > 100 | > 100 µM | > 100 | > 100 µM | > 100 µM | > 100 µM | > 100 µM |  |  |  |  |  |  |  |  |  |  |
| O=C1c2ccccc2C(=O)C1(Cl)C1(S(=O)(=O)O)c2ccccc2-c2ccccc21 | > 100 µM | > 100 µM | > 100 | > 100 | > 100 µM | > 100 | > 100 µM | > 100 µM | > 100 µM | > 100 µM |  |  |  |  |  |  |  |  |  |  |
| CCOC(=O)Oc1c(OC)cc(C(=O)NC2CCc3cc(OC)c(OC)c(OC)c3-c3ccc(SC)c(=O)cc32)cc1OC (stereo not given) | 13.6 µM | 0.871 µM | 42.1 |  | 0.0556 µM and < 0.007 µM | > 70 | 0.287 µM and 0.0579 µM | < 0.007 µM | > 70 µM |  | 0.132 µM |  | < 0.007 | 0.0119 |  | 0.00962 | < 0.007 µM | < 0.007 µM | < 0.007 µM | < 0.007 |
| CCCCN(CCCC)CC(C(=O)Nc1ccc([N+](=O)[O-])cc1[N+](=O)[O-])/C(C)=N\NC(=S)NN (stereo not given) |  | > 100 µM | > 100 | > 100 | > 100 µM | > 100 | > 100 µM | > 100 µM | > 100 µM | > 100 µM |  |  |  |  |  |  |  |  |  |  |
| Cc1cc(Br)cc(C)c1NC(=O)C(=O)C(C(=O)c1ccc2ccccc2c1)C1OC(=O)c2ccccc21 (stereo not given) | 42.3 µM | 6.9 µM | 22.3 | 38.7 | 41.8 µM | 86 | 18.7 µM | 43.9 µM | 28.1 µM | > 64.8 µM |  |  |  |  |  |  |  |  |  |  |
| CSc1nc2c(nc(C)c(=O)n2C2OCC(OC(C)=O)C(OC(C)=O)C2OC(C)=O)c(=O)[nH]1 (stereo not given) | > 100 µM | > 100 µM | > 100 | > 100 | > 100 µM | > 100 | > 100 µM | > 100 µM | > 100 µM | > 100 µM |  |  |  |  |  |  |  |  |  |  |
| CC(C)(C)[SiH]12(OC(C(F)(F)F)(C(F)(F)F)c3ccccc31)OC(C(F)(F)F)(C(F)(F)F)c1ccccc12 | 4.77 µM |  | 16.2 | 7.83 | 22.3 µM | 24.3 | 6.19 µM | 7.18 µM | 18.1 µM | 16.6 µM |  |  |  |  |  |  |  |  |  |  |
| COC(=O)C(C(=O)C(=O)Nc1cccc(OC)c1)c1cnc2ccccc2n1 (stereo not given) | > 100 µM | > 100 µM | > 100 | > 100 | > 100 µM | > 100 | > 100 µM | > 100 µM | > 100 µM |  |  |  |  |  |  |  |  |  |  |  |
| Cc1ccc(SC(C)/C=C/NNC2=NC(c3ccccc3)C(c3ccccc3)=NN2)cc1 (stereo not given) | > 100 µM | 66.1 µM | > 100 | 27.6 | > 100 µM | > 100 |  | > 100 µM | > 100 µM | > 100 µM |  |  |  |  |  |  |  |  |  |  |
| CC1=CC(/C=C(\C)CCCc2ccoc2)C2(OC(=O)C(C)=C2O)[C@H]2C1CC[C@@H]2C (stereo not given in full) | 39.8 µM | 41 µM | 58.8 |  | 72.2 µM |  | 67.1 µM | > 100 µM | > 100 µM | 51 µM |  |  |  |  |  |  |  |  |  |  |
| C=C(C=O)[C@@H]1C2OC(=O)C(=C)[C@@H]2CC(O)[C@@]1(C)CC (stereo not given in full) | 24.7 µM | 4.19 µM | 8.23 | 24.9 | 36.8 µM |  | 32.4 µM | > 100 µM | 11.8 µM | 21.3 µM |  |  |  |  |  |  |  |  |  |  |
| O=c1n(CC2CO2)c(=O)n(CC2CO2)c(=O)n1CC1CO1 (stereo not given) | 78.3 µM and 90.6 µM and > 100 µM | 63.7 µM and 111 µM and > 100 µM |  | 201 | 70.9 µM | 51.4 | 32.4 µM and 67.2 µM and 32.2 µM | 89.8 µM and > 100 µM | 228 µM and > 100 µM | 108 µM and 40.2 µM | 13.1 µM and 25.7 µM and 11.9 µM | 18 µM and 7.22 µM |  |  |  | 5.47 | 6.8 µM and 21.1 µM | 26.3 µM and 13.2 µM | 20.6 µM and 13.1 µM |  |
| CC(O)C(N=Cc1ccccc1[O-])C(=O)[O-].CC(O)C(N=Cc1ccccc1[O-])C(=O)[O-].[Co+2] (stereo not given) | > 100 µM | > 100 µM |  | > 100 |  |  |  | > 100 µM | > 100 µM | > 100 µM | > 100 µM | 47.7 µM |  | > 100 |  |  | > 100 µM | 78.2 µM | > 100 µM |  |
| CC(C)(C)OC(=O)NCC(=O)OCc1ccccc1 | > 100 µM | > 100 µM | > 100 |  | > 100 µM | > 100 | > 100 µM | > 100 µM | > 100 µM | > 100 µM |  |  |  |  |  |  |  |  |  |  |
| COc1ccc(NC(=O)CCc2cc(-c3ccc(O)c(OC)c3)nc(NC#N)n2)cc1 | > 100 µM | > 100 µM | > 100 | > 100 | > 100 µM |  | > 100 µM |  | > 100 µM | > 100 µM |  |  |  |  |  |  |  |  |  |  |
| O=[n+]1c2c(n([O-])c3ccccc31)CCCCCCCCCC2 | > 100 µM | > 100 µM | > 100 | > 100 |  | > 100 | > 100 µM | > 100 µM | > 100 µM | > 100 µM |  |  |  |  |  |  |  |  |  |  |
| COc1ccc(OC)c(NC(=O)C(=O)NNC(=O)c2sc(NNC(C)=O)nc2C)c1 | > 100 µM | 39.2 µM | 81.6 | > 100 |  |  | > 100 µM |  | 46.6 µM | 66.3 µM |  |  |  |  |  |  |  |  |  |  |
| COC(=O)/C=C/c1cc(O)c2oc(-c3ccc(O)c(O)c3)c(C(=O)OC)c2c1 | 11.2 µM | 11.3 µM |  |  |  |  | 13.4 µM | 1.41 µM | 14 µM | 3.43 µM | 0.0672 µM | 1.57 µM |  |  |  | 0.606 | 0.0376 µM | 0.124 µM | 0.147 µM |  |
| O=C(CCCn1ccnc1[N+](=O)[O-])NCCn1cncc1[N+](=O)[O-] | > 100 µM | > 100 µM |  |  |  |  | > 100 µM | > 100 µM | > 100 µM | > 100 µM |  |  |  |  |  |  |  |  |  |  |
| COc1cc(C(=O)c2cc(C)c3[nH]c4ccc(Cl)cc4c3c2C)cc(OC)c1OC | 4.25 µM | 4.65 µM |  |  |  |  | 15 µM | 3.96 µM | 24.8 µM | 7.16 µM | 0.0355 µM | 0.156 µM |  |  |  | 0.0425 | 0.0254 µM | 0.0415 µM | 0.0329 µM |  |
| COc1ccc(N2C(=O)C(c3ccccc3)(c3ccccc3)C23C(=O)N(C)c2ccccc23)cc1 (stereo not given) | > 100 µM | > 100 µM |  |  |  |  | > 100 µM | > 100 µM | > 100 µM | > 100 µM | > 100 µM | > 100 µM |  |  |  | > 100 | 89.1 µM | > 100 µM | > 100 µM |  |
| Cc1ccc(C(SCC(N)C(=O)O)(c2ccccc2)c2ccc(C)cc2)cc1 (stereo not given) | 23.9 µM | 22.4 µM |  |  |  |  | 15.5 µM | 17.7 µM | 14.8 µM | 2.64 µM | 0.367 µM | 1.19 µM |  |  |  | 0.101 | 0.334 µM | 0.153 µM | 0.192 µM |  |
| CS(=O)(=O)N/N=C/CN1C(=O)c2ccccc2C1=O | > 100 µM |  | > 100 | > 100 | > 100 µM | > 100 | > 100 µM | > 100 µM | > 100 µM | > 100 µM |  |  |  |  |  |  |  |  |  |  |
| COc1ncnc(C2CC2)c1-c1ncc2cnn(Cc3ccc(-c4nc(C(F)(F)F)cn4C(C)C)cc3)c2n1 | 90.7 µM | 73.5 µM |  |  |  |  | > 100 µM | 53.6 µM | > 100 µM | 76.5 µM | 17 µM | 6.41 µM |  |  |  | 25.7 | 5.36 µM | 28 µM | 22.2 µM |  |
